In PMC4222603, “Dual inhibition of HIV-1 replication by integrase-LEDGF allosteric inhibitors is predominant at the post-integration stage” (Retrovirology, 2013):
Read-outs that look alike come from different tables or passages of the source.

Legend:
[1] = test system: NL4-3 RT M41L, D67N, K103N, M184V, L210W, T215Y; experiment: Antiviral assay on Multi-drug (NRTI + NNRTI) resistant virus; type: cell-based, HIV-1; settings: ratio EC50 resistant virus / wt virus; NRTI + NNRTI mutations
[2] = test system: HIV-1 proviral DNA (late reverse transcription product, integrated DNA); experiment: Quantification of viral cDNA by real-time PCR in infected MT4 cells; type: cell-based
Method: Prior to infection, viral stocks were treated 1 h at 37°C with 100 U per mL of DNAseI (Roche Applied Science). MT4 cells (6x10^6) were infected with virus at MOI = 0.001. At 7 h, 24 h and 48 h post-infection, cells were harvested, washed twice in PBS and DNA was extracted using the QIAamp Blood DNA Minikit (Qiagen). Quantifications of viral DNA were performed by real-time PCR using the LightCycler 480 system (Roche Applied Science). Primers, probes, and PCR run conditions were described previously. The copy number of HIV-1 late reverse transcription product (LRT) was determined using standard curves obtained by amplification of cloned DNA containing the matched sequences. The copy number of integrated HIV-1 DNA was determined in reference to a standard curve generated by concomitant two-stage PCR amplification of a serial dilution of the standard HeLa HIVR7-Neo cell DNA [59]. Copy numbers of each viral form were normalized with the number of cells obtained by the quantification by PCR of the β-globin gene according to the manufacturer instructions (Roche Applied Science).

[3] = test system: NL4-3 Protease L10R, M46I, L63P, V82T, I84V; experiment: Antiviral assay on PI-resistant virus; type: cell-based, HIV-1; settings: ratio EC50 resistant virus / wt virus
[4] = test system: HIV-1 NL4-3 wt; type: cell-based
[5] = test system: VSV-G-pseudotyped HIV-1 Δenv-Luc NL4-3; experiment: Time-of-addition experiment, single-round infection of MT4 cells; type: cell-based; settings: 25 μM (saturating)
[6] = test system: NL4-3 RT K103N, Y181C; experiment: Antiviral assay on NNRTI-resistant virus; type: cell-based, HIV-1; settings: ratio EC50 resistant virus / wt virus
[7] = target: T1, IN NL4-3 wt (Human immunodeficiency virus type 1 group M subtype B, UniProt P12497); parameters: species or system HIV-1; settings: pre-incubation with 100 μM compound
T1 construct: loaded on a Superdex 200 16/600 PG column (for full length IN); made in house
Method: SEC was performed with a Superdex 200 10/300 GL column (GE Healthcare) using a flow-rate of 0.4 mL/min in buffer containing 50 mM HEPES, pH 7.5, 1 M NaCl, 7 mM CHAPS, 5 mM MgCl2, 10 mM DTT, 10% glycerol at room temperature. […] Protein elution was monitored at 280 nm.

[8] = test system: VSV-G-pseudotyped NL4-3Δenv-luc; experiment: microbe, parasite or virus in culture; type: cell-based, HIV-1
[9] = target: T2, IN strand transfer activity (Human immunodeficiency virus type 1 group M subtype B, UniProt P12497); experiment: IN strand transfer ELISA assay; type: biochemical, HIV-1
T2 construct: loaded on a Superdex 200 16/600 PG column (for full length IN); made in house
Method: IN strand transfer ELISA assay has been adapted from. […] 16 μL of IN mixture (20 mM HEPES pH 7.5, 10 mM MgCl2, 1 mM DTT, 0.50 μM His6-IN) was added. […] The reaction was stopped by addition of 60 μL stop mixture (20 mM Tris–HCl pH 7.6, 0.4 M NaCl, 10 mM Na2EDTA, 0.1 mg/mL salmon sperm DNA) and the volume transferred to Reacti-Bind high-binding capacity streptavidin-coated white plates (Thermo Scientific Pierce). After 1 h incubation at room temperature under gentle shaking, integrase and unjoined DNA were removed by three washes with 200 μL wash solution 1 (30 mM NaOH, 0.2 M NaCl, 1 mM Na2EDTA). 100 μL of 2000-fold diluted HRP-conjugated anti-DIG Fab (Roche Applied Science) was added and the plate was incubated for 1 h at 37°C. Unbound antibody was removed with wash solution 2 (PBS pH 7.4, 0.05% Tween-20, 0.1% bovine serum albumin), 100 μL of SuperSignal Femto ELISA substrate (Thermo Scientific Pierce) was added and chemiluminescence was immediately read in a PHERAstar Plus with LUM-plus module. The signal, converted to % inhibition, was analyzed by fitting a sigmoidal dose–response curve to determine IC50 and the inhibition plateau.

[10] = target: viral protease (Human immunodeficiency virus type 1 group M subtype B, UniProt P12497); experiment: Viral protease inhibition (unpublished data); type: biochemical, HIV-1
[11] = test system: NL4-3 RT M41L, D67N, T69N, K70R, T215F, K219E; experiment: Antiviral assay on NRTI-resistant virus; type: cell-based, HIV-1; settings: ratio EC50 resistant virus / wt virus
[12] = test system: HIV-1 mutant IN A128T; experiment: Antiretroviral activity on HIV-1 mutant IN A128T; type: cell-based
[13] = target: T3, IN 3′ processing activity (Human immunodeficiency virus type 1 group M subtype B, UniProt P12497); experiment: IN 3′ processing radioactive assay; type: biochemical, HIV-1; settings: 0.01 to 100 μM
T3 construct: were carried out at 37°C with the full-length HIV-1 IN
Source text: Sequences of the different oligonucleotides (ODN) substrates are U5B: 5′-[…]-3′, U5A: 5′- […]-3′ and U5B-2: 5′-[…]-3′. ODNs were purchased from Eurogentec and further purified by electrophoresis in a denaturing 16% acrylamide/urea gel. For activity assays, ODNs (U5B and U5B-2) were radiolabelled with T4 polynucleotide kinase (New England Biolabs) and γ[^32-P]ATP (3000 Ci/mmol) (Amersham), and purified on a Sephadex G-10 column (GE Healthcare). Double-stranded ODNs (U5B with U5A and U5B-2 with U5A used for 3′-processing and strand transfer reactions, respectively) were obtained by mixing equimolar amounts of complementary strands in the presence of 100 mM NaCl.
IN activity assays – 3′-processing, strand transfer – were carried out at 37°C with the full-length HIV-1 IN, in a buffer containing 10 mM HEPES (pH 7.2), 1 mM DTT, 7.5 mM MgCl2 in the presence of 6.25 nM DNA (3′-processing) or 12.5 nM DNA (strand transfer) as described previously. For negative control, 100 mM Na2EDTA was added to the reaction before incubation. Products were separated by electrophoresis in denaturing 16% acrylamide/urea gels. Gels were analysed with a Molecular Dynamics STORM phosphoimager and quantified with ImageQuant™ 4.1 software.

[14] = test system: HIV-1 NL4-3; experiment: Antiviral assay in MT-4 cells, multiple-round infection, CellTiter-Glo; type: cell-based
Method: MT-4 cells growing exponentially at the density of 10^6/mL were infected with HIV-1 strain NL4-3 at a MOI (multiplicity of infection) of 0.001 for 2 h. The cells were washed with PBS and aliquoted, using 100 μL fresh complete RPMI, into 96-well white plates (Corning) in the presence of different concentrations of compounds.

Cc1nc2c(c(-c3ccc4c(c3)CCCO4)c1C(OC(C)(C)C)C(=O)O)CCCC2 (stereo not shown) [Mut101, 2-(tert-butoxy)-2-[4-(3,4-dihydro-2H-1-benzopyran-6-yl)-2-methyl-5,6,7,8-tetrahydroquinolin-3-yl]acetic acid]
EC50 fold change Multi-drug [1]: 1
Integration of the proviral DNA (qPCR) [2]: inhibited the integration of the proviral DNA
Production of proviral DNA at reverse transcription (qPCR) [2]: not the production of proviral DNA at reverse transcription
EC50 fold change PI [3]: 1
Infectivity of NL4-3 wt virus produced in presence of compound [4]: inactivated
Behaviour in time-of-addition experiment [5]: behaved as an inhibitor of integration
EC50 fold change NNRTIs [6]: 1
Effect on IN wt oligomerization state (SEC) [7]: higher IN oligomerization state
SR/MR ratio [8]: 18
EC50 ([8]; Human immunodeficiency virus 1, NL43, MT4, read-out: NL4-3 EC50 Single-round): 9000 ± 1500 nM
IC50 ([9]; Table 1, ELISA, read-out: IN ST IC50): 170 nM
IN ST plateau (%) ([9]; inhibition plateau, concentrations up to 100 μM): 66%
Inhibition of viral protease [10]: does not inhibit viral protease
EC50 fold change NRTIs [11]: 1
ARV activity on HIV-1 mutant IN A128T [12]: full ARV activity
Maximum inhibition of IN 3′ processing [13]: 25-30%
EC50 ([14]; Human immunodeficiency virus 1, NL43, MT4, Table 1, read-out: NL4-3 EC50 (MT4 assays)): 540 nM
EC50 ([14]; Human immunodeficiency virus 1, NL43, MT4, Table 3, mean of two independent experiments, read-out: EC50 NL4-3 WT): 470 nM
EC50 ([14]; Human immunodeficiency virus 1, NL43, MT4 cells, mean of six independent experiments, read-out: NL4-3 EC50 Multiple-round): 490 ± 40 nM
